# Reference: patent publication US20220232831A1, “NOVEL NON-CODING HETEROCYCLIC AMINO ACIDS (NCHAA) AND THEIR USE AS HERBICIDES” (Fortephest Ltd., priority 2019, published 2022)
# Key:
# [1] = system: Romaine lettuce (Lactuca sativa L.) plants; assay: Post-emergency herbicidal activity on Romaine lettuce plants; format: in vivo; details: Romaine lettuce at stage 2 to 3 leaves; compound in 0.1% Silwet, up to 0.5%; visual evaluation vs control plants
# Method in brief: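 Plants at the 2 to 3 leaf stage were treated with compound in 0.1% aqueous Silwet at 0.0% (Control) to 0.5%, with 20 to 40 plants per test. Vigor, height and leaf color were scored 0 (dead) to 100 (healthy) at 7, 14 and 21 DAA, and aboveground wet weight was measured.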
# [2] = system: Amaranthus blitoides (Pigweed); assay: Herbicidal activity on development of weeds and crops (pot test); format: in vivo; details: 32 days after application, 0 = dead, 100% = healthy
# Procedure: (§1) The experiment included 225 pots. Weed seeds were sawn in 0.3-liter pots, containing medium-heavy clay-loam soil from Newe Ya'ar Research Center organic fields (55% clay, 23% silt, 20% sand, 2% organic matter, pH 7.1). The experiment was conducted in a completely randomized design. Each treatment was replicated 5 times (5 pots). The herbicides were applied at 200 L/ha with a motorized sprayer equipped with a Tee Jet 8001E nozzle (Spraying Systems Co., North Ave., Wheaton, Ill. 60188, USA) and operated at a pressure of 300 kPa. The pots were transferred to a glasshouse 24 hours after herbicide application and were sprinkler irrigated to field capacity of the soil. The plants were grown in the glasshouse during the entire experiment. Plant development at 6, 12, 19, 26 and 32 days after application (DAA) were evaluated on a scale of 0 to 100%, in which 0 represents dead plants and 100% represents healthy plants according to plant vigor, height, and leaf color.
# (§2) Phalaris minor (Cannarygrass); Setaria verticillata (Bristlegrass); Solanum nigrum (Black nightshade) Sinapis arvensis (Mustard); Silybum marianum (Thistle); Chenopodium album (Lambsquarter); Amaranthus (Pigweed); Fodder corn; Avena sativa (Cultured oats.
# (§3) Plant development was evaluated on a scale of 0 to 100%, in which 0 represents dead plants and 100% represents healthy plants according to plant vigor, height, and leaf color.
# [3] = system: Avena sativa (Cultured oats); assay: as above; format: in vivo; details: Avena sativa (crop); 32 days after application; 0 = dead, 100% = healthy
# Procedure: as §1, §2, §3
# [4] = system: Chenopodium album (Lambsquarter); assay: as above; format: in vivo; details: 32 days after application, 0 = dead, 100% = healthy
# Procedure: as §1, §2, §3
# [5] = system: Fodder Corn; assay: as above; format: in vivo; details: Fodder corn (crop); 32 days after application; 0 = dead, 100% = healthy
# Procedure: as §1, §2, §3
# [6] = system: Phalaris minor (Cannarygrass); assay: as above; format: in vivo; details: 32 days after application, 0 = dead, 100% = healthy
# Procedure: as §1, §2, §3
# [7] = system: Setaria verticillata (Bristlegrass); assay: as above; format: in vivo; details: 32 days after application, 0 = dead, 100% = healthy
# Procedure: as §1, §2, §3
# [8] = system: Sinapis arvensis (Mustard); assay: as above; format: in vivo; details: 32 days after application, 0 = dead, 100% = healthy
# Procedure: as §1, §2, §3
# [9] = system: Solanum nigrum (Black nightshade); assay: as above; format: in vivo; details: 32 days after application, 0 = dead, 100% = healthy
# Procedure: as §1, §2, §3
# [10] = system: Marianum (Thistle); assay: as above; format: in vivo, Silybum marianum; details: 32 days after application, 0 = dead, 100% = healthy
# Procedure: as §1, §2, §3
# [11] = system: Seeds of Lettuce R. (Super-Jericho); assay: Filter paper bioassay with lettuce seeds (germination and early plant development); format: in vivo; details: lettuce seeds on filter paper; 1, 0.1, 0.01, 0.001 mM; radicle and shoots assessed after 6 days
# Method in brief: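 Lettuce seeds (10 per plate) were placed on filter paper with 2.0 ml water or test material at 1, 0.1, 0.01 or 0.001 mM. Plates were kept dark for 48 h, then grown 4 days at 22° C under a 6/18 dark/light cycle. At day 6, radicle and shoot development was scored visually; MEC is the lowest concentration causing deviation from control.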
Structure (SMILES),post-emergency herbicidal activity (Activity Index: plant's development vs Control) [1],"Minimal Effective Concentration (MEC) as activity score, seeds germination & early plants development [11]",also measured
"NC(Cc1ccnc(Br)c1)C(=O)O (stereo not shown) [Code 632, 2-amino-3-(2-bromopyridin-4-yl)propanoic acid]",Maximal (Less than 15),Strong (0.1 mM),Plants' Development (% of Control group) following treatment with NCHAAs [2]: 100%; Plants' Development (% of Control group) following treatment with NCHAAs [3]: 100%; Plants' Development (% of Control group) following treatment with NCHAAs [4]: 20%; Plants' Development (% of Control group) following treatment with NCHAAs [5]: 100%; Plants' Development (% of Control group) following treatment with NCHAAs [6]: 10%; Plants' Development (% of Control group) following treatment with NCHAAs [7]: 20%; Plants' Development (% of Control group) following treatment with NCHAAs [8]: 80%; Plants' Development (% of Control group) following treatment with NCHAAs [9]: 25%; Plants' Development (% of Control group) following treatment with NCHAAs [10]: 15%
"NC(Cc1cc(Cl)sc1Cl)C(=O)O (stereo not shown) [Code 517, 2-amino-3-(2,5-dichlorothiophen-3-yl)propanoic acid]",Maximal (Less than 15),Maximal (0.01 mM and less),Plants' Development (% of Control group) following treatment with NCHAAs [2]: 10%; Plants' Development (% of Control group) following treatment with NCHAAs [3]: 100%; Plants' Development (% of Control group) following treatment with NCHAAs [4]: 10%; Plants' Development (% of Control group) following treatment with NCHAAs [5]: 90%; Plants' Development (% of Control group) following treatment with NCHAAs [6]: 60%; Plants' Development (% of Control group) following treatment with NCHAAs [7]: 100%; Plants' Development (% of Control group) following treatment with NCHAAs [8]: 0%; Plants' Development (% of Control group) following treatment with NCHAAs [9]: 15%; Plants' Development (% of Control group) following treatment with NCHAAs [10]: 35%
C[n+]1cncc(CC(N)C(=O)O)c1 (stereo not shown) [Code 676],Very Strong (From 15 to 25),Moderate (1 mM),
NC(Cc1csc(C(F)(F)F)c1)C(=O)O (stereo not shown) [Code 556],Maximal (Less than 15),Strong (0.1 mM),
CCOCCOC(=O)C(Cc1nc(Cl)sc1Cl)NC(C)=O (stereo not shown) [Code 555],Maximal (Less than 15),Strong (0.1 mM),
NC(CNS(=O)(=O)c1cc(Br)sc1Br)C(=O)O (stereo not shown) [Code 558],Very Strong (From 15 to 25),Maximal (0.01 mM and less),
NC(Cc1cc(Br)nc(Br)c1)C(=O)O (stereo not shown) [Code 634],Very Strong (From 15 to 25),Strong (0.1 mM),
NC(Cc1cc[nH]c1)C(=O)O (stereo not shown) [Code 704],Weak (More than 75),Weak (More than 1 mM),
NC(Cc1ccnc(S)c1)C(=O)O (stereo not shown) [Code 613],Weak (More than 75),Weak (More than 1 mM),
CCOC(=O)C(N)Cc1cc(Cl)sc1Cl (stereo not shown) [Code 569],Maximal (Less than 15),Strong (0.1 mM),
COCCOCCOC(=O)C(N)Cc1ccsc1 (stereo not shown) [Code 570],Very Strong (From 15 to 25),Maximal (0.01 mM and less),
NC(Cc1cc(Cl)cnc1Cl)C(=O)O (stereo not shown) [Code 624],Moderate (From 50 to 75),Moderate (1 mM),
NC(CNS(=O)(=O)c1ccsc1)C(=O)O (stereo not shown) [Code 504],Weak (More than 75),Weak (More than 1 mM),
CCOC(=O)C(N)CNS(=O)(=O)c1cc(Cl)sc1Cl (stereo not shown) [Code 524],Weak (More than 75),Weak (More than 1 mM),
CN(C)c1cc(CC(N)C(=O)O)ccn1 (stereo not shown) [Code 631],Weak (More than 75),Weak (More than 1 mM),
NC(Cc1cc(=O)[nH]c(=O)[nH]1)C(=O)O (stereo not shown) [Code 652],Weak (More than 75),Weak (More than 1 mM),
COCCOCCOC(=O)C(N)Cc1ccc(Br)nc1 (stereo not shown) [Code 674],Moderate (From 50 to 75),Strong (0.1 mM),
